Test: xn = mol fraction of the nth substance listed
Settings: Gas, Vibrating tube method

S [hydrogen sulfide] + C
Settings | mass density [kg/m3]
252.89 K, 10727 kPa, x2 = 0.8197 | 209.51
252.89 K, 11063 kPa, x2 = 0.8197 | 217.25
252.89 K, 11429 kPa, x2 = 0.8197 | 224.63
252.9 K, 9948 kPa, x2 = 0.8197 | 181.75
252.9 K, 10181 kPa, x2 = 0.8197 | 191.68
252.9 K, 10440 kPa, x2 = 0.8197 | 200.58
252.9 K, 11825 kPa, x2 = 0.8197 | 231.88
252.9 K, 12251 kPa, x2 = 0.8197 | 239.02
252.91 K, 9089 kPa, x2 = 0.8197 | 146
252.91 K, 9296 kPa, x2 = 0.8197 | 153.9
252.91 K, 9508 kPa, x2 = 0.8197 | 162.6
252.91 K, 9727 kPa, x2 = 0.8197 | 172.12
252.91 K, 12717 kPa, x2 = 0.8197 | 246.1
252.92 K, 13223 kPa, x2 = 0.8197 | 253.09
252.92 K, 13782 kPa, x2 = 0.8197 | 260.02
252.94 K, 1010 kPa, x2 = 0.714 | 10.45
252.94 K, 14392 kPa, x2 = 0.8197 | 266.89
252.95 K, 1513 kPa, x2 = 0.714 | 16.11
252.95 K, 15070 kPa, x2 = 0.8197 | 273.89
252.96 K, 508 kPa, x2 = 0.714 | 5.18
252.97 K, 15829 kPa, x2 = 0.8197 | 280.91
252.98 K, 16314 kPa, x2 = 0.8197 | 285.18
252.99 K, 16702 kPa, x2 = 0.8197 | 288.37
253 K, 2008 kPa, x2 = 0.714 | 22.87
253 K, 21010 kPa, x2 = 0.8197 | 317.91
253 K, 21473 kPa, x2 = 0.8197 | 320.52
253 K, 21973 kPa, x2 = 0.8197 | 323.2
253 K, 22531 kPa, x2 = 0.8197 | 326.01
253 K, 22822 kPa, x2 = 0.8197 | 327.46
253 K, 23125 kPa, x2 = 0.8197 | 329.05
253.01 K, 17275 kPa, x2 = 0.8197 | 293.02
253.01 K, 20084 kPa, x2 = 0.8197 | 312.27
253.01 K, 20574 kPa, x2 = 0.8197 | 315.19
253.01 K, 23774 kPa, x2 = 0.8197 | 332.07
253.01 K, 24145 kPa, x2 = 0.8197 | 333.77
253.02 K, 2407 kPa, x2 = 0.714 | 28.16
253.02 K, 17701 kPa, x2 = 0.8197 | 296.11
253.02 K, 18537 kPa, x2 = 0.8197 | 302.29
253.02 K, 19009 kPa, x2 = 0.8197 | 305.49
253.02 K, 19564 kPa, x2 = 0.8197 | 309.06
253.02 K, 24553 kPa, x2 = 0.8197 | 335.64
253.02 K, 25031 kPa, x2 = 0.8197 | 337.77
253.03 K, 225 kPa, x2 = 0.8197 | 2.1
253.03 K, 18070 kPa, x2 = 0.8197 | 299
253.03 K, 25582 kPa, x2 = 0.8197 | 340.15
253.04 K, 26249 kPa, x2 = 0.8197 | 342.94
253.05 K, 472 kPa, x2 = 0.8197 | 4.43
253.05 K, 26980 kPa, x2 = 0.714 | 414.51
253.06 K, 26459 kPa, x2 = 0.714 | 412.74
253.06 K, 27510 kPa, x2 = 0.8197 | 348.27
253.07 K, 1105 kPa, x2 = 0.8197 | 10.58
253.07 K, 23585 kPa, x2 = 0.714 | 402.01
253.07 K, 26760 kPa, x2 = 0.8197 | 345.19
253.07 K, 27152 kPa, x2 = 0.8197 | 346.63
253.07 K, 27494 kPa, x2 = 0.714 | 416.29
253.07 K, 28062 kPa, x2 = 0.8197 | 350.41
253.08 K, 1496 kPa, x2 = 0.8197 | 14.53
253.08 K, 2006 kPa, x2 = 0.8197 | 20.39
253.08 K, 28543 kPa, x2 = 0.8197 | 352.25
253.08 K, 28966 kPa, x2 = 0.8197 | 353.85
253.08 K, 29496 kPa, x2 = 0.8197 | 355.79
253.08 K, 30039 kPa, x2 = 0.8197 | 357.73
253.09 K, 23043 kPa, x2 = 0.714 | 399.91
253.09 K, 24033 kPa, x2 = 0.714 | 403.73
253.09 K, 25963 kPa, x2 = 0.714 | 410.91
253.1 K, 21049 kPa, x2 = 0.714 | 391.7
253.1 K, 28034 kPa, x2 = 0.714 | 418.14
253.11 K, 20550 kPa, x2 = 0.714 | 389.58
253.11 K, 25528 kPa, x2 = 0.714 | 409.34
253.12 K, 4809 kPa, x2 = 0.8197 | 59.33
253.12 K, 19058 kPa, x2 = 0.714 | 382.7
253.12 K, 24495 kPa, x2 = 0.714 | 405.58
253.13 K, 5304 kPa, x2 = 0.8197 | 67.27
253.13 K, 17511 kPa, x2 = 0.714 | 374.95
253.13 K, 28568 kPa, x2 = 0.714 | 420
253.14 K, 16004 kPa, x2 = 0.714 | 366.38
253.14 K, 25004 kPa, x2 = 0.714 | 407.49
253.15 K, 19521 kPa, x2 = 0.714 | 384.91
253.15 K, 21583 kPa, x2 = 0.714 | 393.97
253.15 K, 22523 kPa, x2 = 0.714 | 397.9
253.16 K, 3517 kPa, x2 = 0.8197 | 38.95
253.16 K, 15038 kPa, x2 = 0.714 | 360.04
253.16 K, 18491 kPa, x2 = 0.714 | 380.05
253.16 K, 20070 kPa, x2 = 0.714 | 387.42
253.16 K, 29087 kPa, x2 = 0.714 | 421.82
253.16 K, 29450 kPa, x2 = 0.714 | 423.08
253.16 K, 30025 kPa, x2 = 0.714 | 425.02
253.17 K, 14005 kPa, x2 = 0.714 | 352.44
253.17 K, 22039 kPa, x2 = 0.714 | 395.89
253.18 K, 4507 kPa, x2 = 0.8197 | 52.31
253.18 K, 17054 kPa, x2 = 0.714 | 372.46
253.19 K, 4054 kPa, x2 = 0.8197 | 46.42
253.19 K, 18047 kPa, x2 = 0.714 | 377.75
253.21 K, 2947 kPa, x2 = 0.8197 | 32.5
253.21 K, 16513 kPa, x2 = 0.714 | 369.43
253.22 K, 15498 kPa, x2 = 0.714 | 363.19
253.23 K, 13535 kPa, x2 = 0.714 | 348.43
253.25 K, 2607 kPa, x2 = 0.8197 | 28.21
253.25 K, 14514 kPa, x2 = 0.714 | 356.43
253.27 K, 13000 kPa, x2 = 0.714 | 342.99
253.28 K, 188 kPa, x2 = 0.8685 | 1.76
253.29 K, 508 kPa, x2 = 0.8685 | 4.8
253.29 K, 24245 kPa, x2 = 0.8685 | 303.67
253.29 K, 24733 kPa, x2 = 0.8685 | 306.89
253.3 K, 1250 kPa, x2 = 0.8685 | 12.25
253.3 K, 25670 kPa, x2 = 0.8685 | 310.08
253.31 K, 1824 kPa, x2 = 0.8685 | 18.07
253.31 K, 29542 kPa, x2 = 0.8685 | 326.32
253.32 K, 5258 kPa, x2 = 0.8685 | 55.98
253.32 K, 6503 kPa, x2 = 0.8685 | 73.25
253.32 K, 27359 kPa, x2 = 0.8685 | 317.71
253.32 K, 27986 kPa, x2 = 0.8685 | 320.59
253.33 K, 2475 kPa, x2 = 0.8685 | 24.75
253.33 K, 5174 kPa, x2 = 0.8685 | 53.92
253.33 K, 5895 kPa, x2 = 0.8685 | 64.88
253.33 K, 28601 kPa, x2 = 0.8685 | 322.89
253.33 K, 29015 kPa, x2 = 0.8685 | 324.42
253.33 K, 30002 kPa, x2 = 0.8685 | 327.17
253.34 K, 4807 kPa, x2 = 0.8685 | 49.57
253.34 K, 6994 kPa, x2 = 0.8685 | 80.75
253.35 K, 3335 kPa, x2 = 0.8685 | 33.57
253.35 K, 7572 kPa, x2 = 0.8685 | 90
253.35 K, 7961 kPa, x2 = 0.8685 | 99.59
253.36 K, 4114 kPa, x2 = 0.8685 | 41.57
253.36 K, 7255 kPa, x2 = 0.8685 | 84.54
253.36 K, 8383 kPa, x2 = 0.8685 | 108.5
253.37 K, 8539 kPa, x2 = 0.8685 | 112.16
253.38 K, 4487 kPa, x2 = 0.8685 | 45.79
253.38 K, 8660 kPa, x2 = 0.8685 | 115.11
253.38 K, 8850 kPa, x2 = 0.8685 | 119.77
253.39 K, 9030 kPa, x2 = 0.8685 | 124.2

Source: the NIST ThermoML archive (doi:10.1016/j.fluid.2016.08.002)
